The source of these data is paper doi:10.1101/2023.03.24.534094v2 (biorxiv, 2023).

Like-named read-outs stand apart in the source and are kept apart here.

Holding throughout (assay): biochemical
Experiment [1] concerns the target T1, CASK (Homo sapiens, UniProt O14936).
T1 sequence (O14936 1-926): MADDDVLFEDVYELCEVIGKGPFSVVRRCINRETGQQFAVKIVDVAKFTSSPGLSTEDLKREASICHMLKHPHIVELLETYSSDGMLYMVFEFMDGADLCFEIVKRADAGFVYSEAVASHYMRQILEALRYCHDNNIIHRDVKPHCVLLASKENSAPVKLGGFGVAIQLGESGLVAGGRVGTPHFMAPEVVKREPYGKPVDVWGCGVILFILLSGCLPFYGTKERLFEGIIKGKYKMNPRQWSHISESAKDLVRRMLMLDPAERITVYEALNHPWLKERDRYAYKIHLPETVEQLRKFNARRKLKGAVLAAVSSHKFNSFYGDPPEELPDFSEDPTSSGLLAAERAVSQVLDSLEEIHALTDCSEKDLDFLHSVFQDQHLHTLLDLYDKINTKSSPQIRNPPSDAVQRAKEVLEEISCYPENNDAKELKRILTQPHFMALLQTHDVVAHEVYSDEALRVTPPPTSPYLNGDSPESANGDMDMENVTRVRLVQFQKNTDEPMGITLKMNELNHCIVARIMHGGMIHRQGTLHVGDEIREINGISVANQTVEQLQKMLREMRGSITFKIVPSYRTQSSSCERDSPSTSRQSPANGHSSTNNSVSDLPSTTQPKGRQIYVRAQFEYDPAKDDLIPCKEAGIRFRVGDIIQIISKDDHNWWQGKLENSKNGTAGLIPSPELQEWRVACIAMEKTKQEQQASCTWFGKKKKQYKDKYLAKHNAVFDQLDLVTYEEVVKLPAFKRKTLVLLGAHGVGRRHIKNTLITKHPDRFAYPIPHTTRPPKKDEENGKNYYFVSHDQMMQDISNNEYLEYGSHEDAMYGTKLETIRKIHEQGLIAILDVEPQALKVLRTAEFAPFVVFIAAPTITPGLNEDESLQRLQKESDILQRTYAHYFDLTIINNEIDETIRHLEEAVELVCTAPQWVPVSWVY

For experiment [2], the target named is T2, MER (Homo sapiens, UniProt Q12866).
T2 sequence (Q12866 1-999): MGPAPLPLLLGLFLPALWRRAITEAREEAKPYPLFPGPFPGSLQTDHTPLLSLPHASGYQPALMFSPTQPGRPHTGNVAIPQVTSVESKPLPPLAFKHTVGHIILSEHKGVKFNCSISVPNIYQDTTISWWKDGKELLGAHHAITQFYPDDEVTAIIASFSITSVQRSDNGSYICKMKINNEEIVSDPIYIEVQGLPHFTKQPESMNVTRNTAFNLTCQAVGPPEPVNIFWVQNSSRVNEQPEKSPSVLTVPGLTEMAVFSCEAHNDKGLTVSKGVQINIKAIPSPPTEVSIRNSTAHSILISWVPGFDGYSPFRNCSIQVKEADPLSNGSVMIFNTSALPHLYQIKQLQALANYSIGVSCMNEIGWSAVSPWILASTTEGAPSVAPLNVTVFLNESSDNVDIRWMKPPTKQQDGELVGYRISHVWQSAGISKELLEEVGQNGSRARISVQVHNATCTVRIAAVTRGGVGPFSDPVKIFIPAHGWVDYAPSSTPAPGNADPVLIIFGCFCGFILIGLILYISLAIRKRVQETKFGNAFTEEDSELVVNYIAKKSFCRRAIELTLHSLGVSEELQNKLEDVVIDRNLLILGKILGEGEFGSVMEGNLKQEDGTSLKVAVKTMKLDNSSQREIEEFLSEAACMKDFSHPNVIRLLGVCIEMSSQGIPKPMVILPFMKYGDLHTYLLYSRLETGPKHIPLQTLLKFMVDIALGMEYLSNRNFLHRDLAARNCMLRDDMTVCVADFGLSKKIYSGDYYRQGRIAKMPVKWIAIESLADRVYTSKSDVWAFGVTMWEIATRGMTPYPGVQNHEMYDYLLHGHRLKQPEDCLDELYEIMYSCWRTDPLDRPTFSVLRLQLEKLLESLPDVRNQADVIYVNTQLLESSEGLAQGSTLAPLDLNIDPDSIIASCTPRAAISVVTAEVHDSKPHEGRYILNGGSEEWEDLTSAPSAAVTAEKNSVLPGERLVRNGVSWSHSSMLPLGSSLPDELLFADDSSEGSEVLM

Experiment [3] has as its target OSR1 (Homo sapiens, UniProt O95747).
In experiment [4] the target is T3, EphB1 (Homo sapiens, UniProt P54762).
T3 sequence (P54762 1-984): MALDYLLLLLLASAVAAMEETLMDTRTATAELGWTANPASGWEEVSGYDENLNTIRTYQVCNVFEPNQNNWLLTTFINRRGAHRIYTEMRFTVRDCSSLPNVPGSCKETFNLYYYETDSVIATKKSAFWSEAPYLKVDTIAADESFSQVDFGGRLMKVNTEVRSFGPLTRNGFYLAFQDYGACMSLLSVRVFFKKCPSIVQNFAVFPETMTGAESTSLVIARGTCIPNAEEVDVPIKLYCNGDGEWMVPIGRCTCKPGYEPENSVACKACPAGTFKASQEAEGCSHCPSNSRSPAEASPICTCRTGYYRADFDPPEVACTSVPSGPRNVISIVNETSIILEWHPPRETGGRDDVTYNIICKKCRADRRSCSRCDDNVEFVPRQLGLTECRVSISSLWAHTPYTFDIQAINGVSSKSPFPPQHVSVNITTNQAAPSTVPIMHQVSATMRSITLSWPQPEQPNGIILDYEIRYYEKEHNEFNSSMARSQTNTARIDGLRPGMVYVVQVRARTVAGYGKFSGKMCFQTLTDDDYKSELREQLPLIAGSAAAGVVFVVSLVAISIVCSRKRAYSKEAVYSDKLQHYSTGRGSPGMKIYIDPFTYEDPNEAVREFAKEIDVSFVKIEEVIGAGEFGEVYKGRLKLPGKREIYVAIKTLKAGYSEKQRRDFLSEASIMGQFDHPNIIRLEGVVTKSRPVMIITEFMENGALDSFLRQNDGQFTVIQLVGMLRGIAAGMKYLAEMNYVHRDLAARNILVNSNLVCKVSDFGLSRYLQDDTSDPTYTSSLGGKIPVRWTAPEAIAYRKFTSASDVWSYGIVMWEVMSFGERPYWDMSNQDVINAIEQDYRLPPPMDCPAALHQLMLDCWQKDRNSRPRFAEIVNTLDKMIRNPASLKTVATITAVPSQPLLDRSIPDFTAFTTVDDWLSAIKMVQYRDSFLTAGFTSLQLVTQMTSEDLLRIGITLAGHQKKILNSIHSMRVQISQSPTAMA

Chain of OSR1 (O95747 whole entry): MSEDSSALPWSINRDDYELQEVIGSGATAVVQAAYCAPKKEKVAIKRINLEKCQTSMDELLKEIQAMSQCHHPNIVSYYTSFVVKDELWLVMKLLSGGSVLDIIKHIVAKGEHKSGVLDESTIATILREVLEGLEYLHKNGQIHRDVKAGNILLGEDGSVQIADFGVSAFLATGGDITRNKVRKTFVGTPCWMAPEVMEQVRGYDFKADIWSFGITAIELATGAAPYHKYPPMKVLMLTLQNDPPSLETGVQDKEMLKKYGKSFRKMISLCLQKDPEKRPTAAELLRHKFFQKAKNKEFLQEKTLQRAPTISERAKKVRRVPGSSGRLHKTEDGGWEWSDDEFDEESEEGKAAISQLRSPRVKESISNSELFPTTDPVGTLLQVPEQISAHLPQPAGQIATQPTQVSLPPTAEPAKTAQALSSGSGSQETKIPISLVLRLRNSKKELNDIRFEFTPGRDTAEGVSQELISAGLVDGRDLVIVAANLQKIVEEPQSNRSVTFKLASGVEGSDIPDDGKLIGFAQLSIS

In the case of `CNc1ncc2cc(-c3ccc(-c4cccc(C)n4)cc3Cl)c(=O)n(CC3OCC(N)CO3)c2n1` (stereo not shown) [compound 2, G-5555], the “dTm G-5555 (2)” value in experiment [1] (10 µM, binder) is -0.8 °C; in experiment [2] (10 µM, binder), 0.8 °C; in experiment [3] (10 µM, binder) it was 0.2 °C.
Take `CNc1ncc2cc(-c3ccccc3Cl)c(=O)n(CCCCN)c2n1` [compound 4, 8-(4-Aminobutyl)-6-(2-chlorophenyl)-2-(methylamino)pyrido[2,3-d]pyrimidin-7(8H)-one]: the ΔTm at 10 µM is 0 °C in experiment [1] (read-out: dTm MR21 (4)), 3.6 °C in experiment [4] (read-out: dTm MR21 (4)), 2.8 °C in experiment [2] (read-out: dTm MR21 (4)) and 1.3 °C in experiment [3] (read-out: dTm MR21 (4)).
Consider `CNc1ncc2cc(-c3cc(Br)ccc3Cl)c(=O)n(C[C@H]3OC[C@H](N)CO3)c2n1` [compound 7, 8-(((2r,5r)-5-Amino-1,3-dioxan-2-yl)methyl)-6-(5-bromo-2-chlorophenyl)-2-(methylamino)pyrido[2,3-d]pyrimidin-7(8H)-one], for which the ΔTm at 10 µM in experiment [1] (read-out: dTm 7) was -0.1 °C; in experiment [4] (read-out: dTm 7), 3.1 °C; in experiment [2] (read-out: dTm 7) it was 0.2 °C; in experiment [3] (read-out: dTm 7), 0 °C.
`CNc1ncc2cc(-c3cc(Br)ccc3Cl)c(=O)n(CCCCN)c2n1` [compound 6, 8-(4-Aminobutyl)-6-(5-bromo-2-chlorophenyl)-2-(methylamino)pyrido[2,3-d]pyrimidin-7(8H)-one]: the ΔTm at 10 µM in experiment [1] (read-out: dTm 6) was -0.3 °C; in experiment [4] (read-out: dTm 6), 4.7 °C; in experiment [2] (read-out: dTm 6), 0.1 °C; in experiment [3] (read-out: dTm 6) it was 0.3 °C.
`CNc1ncc2cc(-c3cc(F)ccc3F)c(=O)n(CCCCN)c2n1` [compound 5, 8-(4-Aminobutyl)-6-(2,5-difluorophenyl)-2-(methylamino)pyrido[2,3-d]pyrimidin-7(8H)-one]: the ΔTm at 10 µM in experiment [1] (read-out: dTm MR22 (5)) was -0.4 °C; in experiment [4] (read-out: dTm MR22 (5)), 4.5 °C; in experiment [2] (read-out: dTm MR22 (5)) it was -0.8 °C; in experiment [3] (read-out: dTm MR22 (5)), -0.8 °C.
